{"source": "patent US20080213250A1", "about": "“Use of Eph Receptor Inhibitors for the Treatment of Neurodegenerative Diseases” (priority 2004, published 2008)", "molecular_target": "T1, EphB1 (Mus musculus, UniProt Q8CBF3)", "T1 sequence (Q8CBF3 18-984)": "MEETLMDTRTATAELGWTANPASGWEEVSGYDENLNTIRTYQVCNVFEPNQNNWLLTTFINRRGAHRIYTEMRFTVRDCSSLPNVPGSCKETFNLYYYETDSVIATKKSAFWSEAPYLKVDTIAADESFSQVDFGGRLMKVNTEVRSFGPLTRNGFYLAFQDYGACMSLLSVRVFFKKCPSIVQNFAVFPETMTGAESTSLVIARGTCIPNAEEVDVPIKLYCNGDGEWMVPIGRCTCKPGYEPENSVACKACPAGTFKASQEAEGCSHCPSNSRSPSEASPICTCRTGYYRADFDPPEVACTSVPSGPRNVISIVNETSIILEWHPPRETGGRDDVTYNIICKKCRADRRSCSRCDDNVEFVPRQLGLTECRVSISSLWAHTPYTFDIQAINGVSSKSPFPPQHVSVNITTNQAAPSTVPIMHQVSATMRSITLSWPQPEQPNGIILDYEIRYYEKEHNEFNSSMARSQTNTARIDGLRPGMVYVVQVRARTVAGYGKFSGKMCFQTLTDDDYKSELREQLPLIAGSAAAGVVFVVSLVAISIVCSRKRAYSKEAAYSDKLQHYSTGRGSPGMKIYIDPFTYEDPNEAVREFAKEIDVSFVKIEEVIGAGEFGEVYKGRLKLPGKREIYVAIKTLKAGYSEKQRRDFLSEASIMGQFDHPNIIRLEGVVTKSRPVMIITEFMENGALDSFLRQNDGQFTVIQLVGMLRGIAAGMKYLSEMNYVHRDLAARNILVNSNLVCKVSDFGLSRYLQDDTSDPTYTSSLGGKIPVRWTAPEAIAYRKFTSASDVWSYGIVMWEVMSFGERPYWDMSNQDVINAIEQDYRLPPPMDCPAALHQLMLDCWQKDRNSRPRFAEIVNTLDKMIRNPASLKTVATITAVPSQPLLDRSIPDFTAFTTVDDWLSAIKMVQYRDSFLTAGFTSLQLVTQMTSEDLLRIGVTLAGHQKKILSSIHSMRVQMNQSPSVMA", "assay": "Chemical proteomics pull-down with immobilized compound, LC-MS/MS identification", "settings": "maximum in any chemical proteomics experiment"}
{"smiles": "CSc1cccc(Nc2ncc3cc(-c4c(Cl)cccc4Cl)c(=O)n(C)c3n2)c1", "note": "[PD173955]", "values": [{"measurement": "maximal number of non-redundant peptides identified, EphB1", "result": 5}]}
